Read-outs that look alike come from different tables or passages of the source. Non-standard residues stand in square brackets, D forms with d. Residues, ends and D or L forms follow the SMILES beside them. αMeP = C[C@@]1(C(=O)O)CCCN1
What was measured:
[1] = tested on: hemizygous MeCP2(1lox) male mice; type: in vivo; settings: for time to 50 percent death: 20 mg/kg/day i.p.
Excerpt: To determine whether G-2-MePE treatment can impact the development and progression of Rett Syndrome in a murine model of the disorder, we used hemizygous MeCP2(1lox) male mice. The MeCP2 knock-out (MeCP2-KO) mouse system is widely accepted in the art as closely mimicking the range and the severity of physiological and neurological abnormalities characteristic of the human disorder, Rett Syndrome.

[2] = tested on: slices of hippocampus from MeCP2 deficient mice; test: Hippocampal long-term potentiation in MeCP2 deficient mice; type: in vivo, mouse; settings: 20 mg/kg/day i.p. from week 4 to week 9; vs saline
Excerpt: MeCP2 deficient mice have been previously reported to suffer from functional and ultrastructural synaptic dysfunction, significant impairment of hippocampus-dependent memory and hippocampal long-term potentiation (LTP) (Moretti et al. The Journal of Neuroscience. 2006. 26(1):319-327). To test the effects of the G-2-MePE treatment on synaptic function in the RTT model we compared hippocampal LTP in both vehicle and G-2-MePE treated animals at 9 weeks of age. To do so, we measured the slope of the fEPSP as a % of baseline potential in neurons in slices of hippocampus from MeCP2 deficient mice treated with either saline or G-2-MePE (FIG. 23).

[3] = tested on: layer 5 pyramidal neurons in motor cortex of P28 knockout mice; test: Golgi staining, cortical spine density; type: in vivo, mouse; settings: knockout with treatment
Description: Samples (<1 cm) from P28 mice are fixed in 10% formalin and 3% potassium bichromate for 24 hours. Tissue is then transferred into 2% silver nitrate for 2 days in the dark at room temperature. Sections from these samples are then cut at 50 μm thickness into distilled water. Sections corresponding to motor cortex are mounted onto slides, air dried for 10 minutes, and then dehydrated through sequential rinses of 95% alcohol, 100% alcohol, and xylene, and then sealed with a coverslip. Images re acquired at 10× (whole cell) and 100× (spine imaging) using a Zeiss Pascal 5 Exciter confocal microscope.
We use Golgi staining to label neurons sparsely and distinctly, and applied high-resolution confocal imaging to measure dendritic spine density and morphology in the labelled cells, restricting analysis to layer 5 pyramidal neurons in sections of motor cortex from critical period mice (P28).
While low-magnification imaging clearly delineates the extent of the dendrites of the pyramidal cells we use higher magnifications to count synaptic contacts and determine the morphological class of each spine. We classify spines as either large and bulbous (“mushroom”, M), short and stubby (“stubby”, S), short and thin (“thin”, T) or filopodia (F).

[4] = tested on: subjects with Rett Syndrome; test: Placebo controlled study in subjects with Rett Syndrome; type: in vivo, human
Excerpt: Thirty subjects with Rett Syndrome are recruited, Subjects are female and aged between […] (Mean=12.1 SD=4.4). All subjects have an IQ<60 and mutations of the MECP2 gene. Subjects also show ether spike activity in the EEG or an increase in lower frequency bands of the BEG as detected by Fast Fourier Transform (FFT). Subjects are instructed that concomitant medications are to be stable for at least six weeks prior to study. Subjects receiving medication to treat signs of inattention are tested in the morning and instructed to take their medication in the afternoon. Subjects with QTc interval >451 msec are excluded.
The study is a randomized double blind placebo controlled parallel study with three doses of either placebo, 10 mg/kg T.I.D oral G-2-MePE for five days, or 30 mg/kg T.I.D. oral G-2-MePE.
Subjects are tested at baseline using the following instruments: The Rett Syndrome Natural History/Clinical Severity Scale, Aberrant Behavior Checklist Community Edition (ABC), Vinelands, Clinical Global Impression of Severity (CGI-S) and their carers completed the Caregiver Strain Questionnaire (CSQ).
Subjects are brought into clinic on an inpatient basis to enable initial baseline recordings of EEG, ECG and respiratory rate continuously for 24 hours using polysomnography technology. Hand movements are also recorded using the Q-Sensor™. Derived EEG measures include: spikes per unit time in the EEG, overall power of frequency bands of the EEG, QTc and heart rate variability (HRV), and respiratory irregularities.
Adverse events are also recorded using standard safety measures and the SMURF elicitation of adverse events
Statistically, the effect of treatment with G-2-MePE is analysed by conducting a repeated analysis of covariance (ANCOVA) on the effect of treatment on change from baseline scores.

[5] = tested on: Tbx1 heterozygous, Cntnap2 knockout, Slc9a6 knockout and fmr1 knockout mice; test: Genetic mouse models of ASD and Fragile X Syndrome; type: in vivo; settings: 20 mg/kg/day i.p.
Description: Effects of G-2-MePE are further tested in the following genetic models of ASD: the Tbx1 heterozygous mouse, the Cntnap2 knockout mouse and the Sic9a6 knockout mouse. G-2-MePE is also tested in the fmr1 knockout mouse model of Fragile X Syndrome.
Animals in each of the above models are generated in accordance with the methodology described in the cited literature. Wild type equivalents are also obtained for each genetic model. Animals in each model are divided into three groups (n=10 to n=20): placebo treated wild type mice, mutant G-2-MePE-treated group and mutant placebo-treated control group.
The treatments are administered intraperitoneally: placebo (saline) or 20 mg/kg/day of G-2-MePE.

gastrointestinal cells = settings: cited from earlier work
central nervous system = settings: after oral administration; cited from earlier work
[6] = 30 mg/kg T.I.D. oral, compared to placebo

C[C@@]1(C(=O)N[C@@H](CCC(=O)O)C(=O)O)CCCN1C(=O)CN [Example G-2-MePE, Glycyl-L-2-methylprolyl-L-glutamic acid] (H-Gly-[αMeP]-Glu-OH)
time to 50 percent death ([1]; data initially presented): 16 weeks
time to 50 percent death ([1]; re-examination with control group re-run): 16 weeks
safety in mecp2 mice ([1]; mouse, in vivo): No safety concerns
slope of fEPSP (hippocampal LTP) [2]: increased
density of spines per unit branch [3]: largely ameliorated
power of the delta band of the EEG [4, 6]: decreases
spike activity [4, 6]: decreases
subscales Nonverbal Communication, Epilepsy/Seizures, Hand use [4, 6]: significant effects
Serious Adverse Events ([4]; 10 or 30 mg/kg T.I.D. oral): No Serious Adverse Events
heart rate variability ([4]; 10 or 30 mg/kg T.I.D. oral): No effects
increases in QTC ([4]; 10 or 30 mg/kg T.I.D. oral): No instances of increases
respiratory rate ([4]; 10 or 30 mg/kg T.I.D. oral): No effects
adverse events ([4]; 10 or 30 mg/kg T.I.D. oral, vs placebo): no more adverse events than are present during treatment with placebo
tolerability ([4]; Rett Syndrome population): well tolerated
Rett Syndrome Natural History/Clinical Severity Score ([4]; overall): no significant effect overall
spikes per unit time in the EEG ([4]; overall treatment effect): significant overall reduction
total hand movements per twenty-four hour period (Q-Sensor) ([4]; significant for the 30 mg/kg T.I.D. dose compared to placebo): reduces
measures associated with the ASD phenotype [5]: significantly improves
degradation by gastrointestinal cells (gastrointestinal cells): not degraded
uptake by gastrointestinal cells (gastrointestinal cells): taken up
activity in the central nervous system (central nervous system): active

— patent US9212204B2, “Treatment of rett syndrome using glycyl-L-2-methylprolyl-L-glutamic acid” (priority 2011, dated 2015)
